Measurements: ChEMBL document CHEMBL1800038, “Kabiramides J and K, trisoxazole macrolides from the sponge Pachastrissa nux” (J Nat Prod, 2011)
pIC50: −log10 of the molar value. Calls of active or inactive are those of the source. No cut-off for these calls is given here.

Assays:
Plasmodium falciparum [1] = test: Antimalarial activity against multidrug-resistance Plasmodium falciparum K1 assessed as growth inhibition by microdilution radioisotope technique; type: functional, organism-based
MCF7 = test: Cytotoxicity against human MCF7 cells by SRB assay; type: functional, cell-based
[2] = Cytotoxicity against human Fibroblasts by SRB assay; type: cell-based; details: Fibroblast
Plasmodium falciparum [3] = test: Antimalarial activity against multidrug-resistance Plasmodium falciparum K1 assessed as growth inhibition at […] by microdilution radioisotope technique; type: functional, organism-based

Row | Structure (SMILES) | pIC50 (Plasmodium falciparum [1]) | pIC50 (MCF7) | pIC50 [2] | inhibition (Plasmodium falciparum [3])
1 | CO[C@@H](C[C@@H]1OC(=O)C[C@@H](OC(N)=O)C[C@H](C)C[C@H](O)[C@H](C)[C@@H](OC)c2coc(n2)-c2coc(n2)-c2coc(n2)/C=C/C[C@H](O)[C@H]1C)[C@@H](C)CCC(=O)/C(C)=C/[C@H](C)/C=C/N(C)C=O [KABIRAMIDE J] | 6.51 | 7.70 |  | 
2 | CO[C@H]([C@H](C)/C=C/N(C)C=O)[C@@H](C)C(=O)CC[C@H](C)[C@H](C[C@@H]1OC(=O)C[C@@H](OC(N)=O)C[C@H](C)C[C@H](O)[C@H](C)[C@@H](OC)c2coc(n2)-c2coc(n2)-c2coc(n2)/C=C/C[C@H](OC)[C@H]1C)OC [KABIRAMIDE C] | 5.32 | 6.33 | 5.12 | 
3 | CC[C@@]1(O)C(=O)OCc2c1cc1n(c2=O)Cc2cc3ccccc3nc2-1 [CAMPTOTHECIN] |  | 8.80 | 6.34 | 
4 | CO[C@H]1C/C=C/c2nc(co2)-c2nc(co2)-c2nc(co2)[C@H](OC)[C@@H](C)[C@@H](O)C[C@@H](C)C[C@H](OC(N)=O)CC(=O)O[C@@H](C[C@H](OC)[C@@H](C)CCC(=O)/C(C)=C/[C@H](C)/C=C/N(C)C=O)[C@@H]1C [KABIRAMIDE G] |  | 7.70 | 5.63 | inactive
5 | CO[C@H]([C@H](C)/C=C/N(C)C=O)[C@@H](C)C(=O)CC[C@H](C)[C@H](C[C@@H]1OC(=O)C[C@@H](O)C[C@H](C)C[C@H](O)[C@H](C)[C@@H](OC)c2coc(n2)-c2coc(n2)-c2coc(n2)/C=C/C[C@H](OC)[C@H]1C)OC [KABIRAMIDE D] | 5.73 | 7.70 | 6.30 | 
6 | CO[C@H]1C/C=C/c2nc(co2)-c2nc(co2)-c2nc(co2)[C@H](OC)[C@@H](C)[C@@H](O)C[C@@H](C)C[C@H](O)CC(=O)O[C@@H](C[C@H](OC)[C@@H](C)CCC(=O)/C(C)=C/[C@H](C)/C=C/N(C)C=O)[C@@H]1C [KABIRAMIDE K] | 6.41 | 7.15 |  | 
7 | CO[C@H]([C@H](C)/C=C/N(C)C=O)[C@@H](C)C(=O)CC[C@H](C)[C@H](C[C@@H]1OC(=O)C[C@@H](OC(N)=O)C[C@H](C)C[C@H](O)[C@H](C)[C@@H](OC)c2coc(n2)-c2coc(n2)-c2coc(n2)/C=C/C[C@H](O)[C@H]1C)OC [KABIRAMIDE B] | 5.78 | 6.35 | 6.02 | 
8 | C[C@H]1[C@@H](O)O[C@@H]2O[C@@]3(C)CC[C@H]4[C@H](C)CC[C@@H]1[C@@]24OO3 [ARTENIMOL] | 8.42 |  |  | 
